These results are taken from US20170296459A1, “METHOD OF IMPROVING THE APPEARANCE OF PERIORBITAL DYSCHROMIA” (The Procter & Gamble Company, priority 2016, published 2017).

In the assay the test system is B16-F1 mouse melanoma cell line. Description: B16 melanin synthesis inhibition assay. The assay is classed as cell-based. To be noted: B16-F1 cells, OD at 410 nm. Here is the method:
In this example, a commercially available B16-F1 mouse melanoma cell line from American Tissue Culture Collection, Virginia, USA was employed in a conventional melanin synthesis inhibition assay. The cell culture medium used in the assay is 500 mL of Dulbecco's Modified Eagle's Medium (DMEM), 50 mL Fetal Bovine Serum (FBS), and 5 mL of penicillin-streptomycin liquid. B16-F1 cells that are cultured in this medium and grown to greater than 90% confluency will synthesize melanin. While not intending to be bound by any theory, it is hypothesized that the melanin synthesis is stimulated by the culture medium and/or stress induced by growth to a high confluency. […] Equipment used in the assay include a CO2 incubator, such as a Forma Series Model 3110 by Therma Scientific, Massachusetts, USA; a hemocytometer, such as a Bright Line model by Hauser Scientific, Pennsylvania, USA; and a UV-Visible Spectrum Plate Reader, such as a SpectraMax250 from Molecular Devices, California, USA. […] Day 3: The cells from the T-150 flask are trypsinized, and the concentration of cells is determined using the hemacytometer. […] Read the 96 well plate using the UV-Vis Plate Reader at 410 nm to optically measure the amount of melanin produced between wells that are treated with the fava bean extract and control wells that are not. […] The concentration of test agent needed to provide the IC 50 is recorded.

`O=c1cc(CO)occ1O` [Kojic Acid]: the “Concentration Needed for IC 50” value is reported as 0.01 v/v.

In the case of `Oc1ccc(OC2CCCCO2)cc1` (centres unmarked) [Deoxyarbutin], the “Concentration Needed for IC 50” value stood at 0.008 v/v.
